# Patent US20090105197A1 (priority 2001, published 2009)
# Where “and” joins values, the source holds several entries; their conditions need not be identical. Equal values may be shown once.
# Columns and labels:
# [1] = test system: acetic acid-induced writhing in mice; experiment: animal or person; format: in vivo, Kunming mice; details: for ID95 (95% inhibition dose) of aspirin: i.m.
# [2] = test system: heat-induced tail flick in mice; details: mouse, in vivo
# [3] = Mus musculus, im, read-out: inhibition Rate (%)
# [4] = combined with small doses of TTX (1/25 and 1/50 LD50) versus aspirin alone
Structure (SMILES),Average Writhing movements ([1]; ASP alone 25 mg/kg i.m.),Average Writhing movements ([1]; ASP alone 50 mg/kg i.m.),Average Writhing movements ([1]; ASP alone 100 mg/kg i.m.),Average Writhing movements ([1]; ASP alone 150 mg/kg i.m.),Average Writhing movements ([1]; ASP alone 200 mg/kg i.m.),"inhibition at 25 mg/kg [1, 3] [%]","inhibition at 50 mg/kg [1, 3] [%]","inhibition at 100 mg/kg [1, 3] [%]","inhibition at 150 mg/kg [1, 3] [%]","inhibition at 200 mg/kg [1, 3] [%]",ID95 (95% inhibition dose) of aspirin ([1]; aspirin alone) [mg/kg],"ID95 (95% inhibition dose) of aspirin ([1]; aspirin alone, listed as aspirin)",ID95 (95% inhibition dose) of aspirin ([1]; aspirin combined with TTX 0.39 μg/kg (1/50 LD50)),ID95 (95% inhibition dose) of aspirin ([1]; aspirin combined with TTX 0.79 μg/kg (1/25 LD50)),"reduction of ID50 of aspirin [1, 4]","reduction of ID95 of aspirin [1, 4]","Average Writhing movements ([1]; mouse, in vivo, 3 mg/kg)","Average Writhing movements ([1]; mouse, in vivo, ip, 3 mg/kg)",analgesic effect with escalating doses [2]
"CC(=O)Oc1ccccc1C(=O)O [ASP, Aspirin]",25.1 ± 14.5,19.3 ± 13.8,12.0 ± 9.2,5.2 ± 5.7,2.7 ± 1.9,35.6,50.6,69.3,86.6,93.2,361.8,361.8 mg/kg and 361.77 mg/kg,154.3 mg/kg and 154.33 mg/kg,94.5 mg/kg and 94.47 mg/kg,exceeded two folds,exceeded two folds,–,–,–
"NC1=N[C@H](O)[C@H]2[C@H]3O[C@]4(O)O[C@@H]([C@@H](O)[C@@]2(N1)[C@@H]4O)[C@]3(O)CO [TTX, Tetrodotoxin]",–,–,–,–,–,–,–,–,–,–,–,–,–,–,–,–,28.2 ± 9.65,23.2 ± 11.7,did not increase markedly with escalating doses
